“And” between values parts separate entries of the source, which are not always exact repeats. Equal values may be shown once.
Legend:
[1] = test system: simian immunodeficiency virus (SIV); assay: TLR7 modulating compound in SIV+ viremic rhesus at chronic set point: plasma viral load by quantitative RT-PCR (Example 203); assay type: in vivo, rhesus macaques
Method: Five chronically infected, SIV^+ rhesus macaques were either treated with the compound of Example 4 (n=3 animals) or with dosing vehicle (placebo, n=2 animals) in a multiple-dose, dose escalation, placebo controlled study. […] The animals were not administered combination antiretroviral therapy during any part of the study.
The animals were dosed once weekly by oral gavage (via nasogastric tube) with either the compound of Example 4 or placebo. Three animals were administered the compound of Example 4, prepared as described in Example 201. The first week, 1 mL/kg of the 0.1 mg/mL formulation was administered, corresponding to a dose of 0.1 mg/kg. The second week, 1 mL/kg of the 0.2 mg/mL formulation was administered, corresponding to a dose of 0.2 mg/kg. On weeks three through five, 1 mL/kg of the 0.3 mg/mL formulation was administered, corresponding to a dose of 0.3 mg/kg. Each week, two animals (placebo group) were administered the dosing vehicle as described in Example 201 at 1 mL/kg.
Each formulation of Example 201 or dosing vehicle only (placebo) was used fresh and thawed to room temperature prior to dosing. Plasma viral loads (expressed as SIV RNA copies per mL of plasma) were determined by quantitative RT-PCR of the SIV RNA measuring the gag gene transcripts at various times throughout the study for animals administered the compound of Example 4 and the placebo animals. […]

[2] = test system: peripheral CD4 lymphocytes (CD3+CD4+CD8−); assay: Peripheral lymphocyte activation, CD69 by flow cytometry: CD4 lymphocytes (Example 206); assay type: in vivo, rhesus macaque
From the text: During the course of treatment with the compound of Example 4 as described in Example 204, peripheral lymphocyte activation was monitored in the groups dosed with the compound of Example 4 or the dosing vehicle of Example 201 (placebo), by measuring the expression of the early activation marker CD69 on various lymphocyte subsets by flow cytometry methodology. This methodology was used to quantify the percentage of immune cell subsets expressing the early activation marker. Standard data acquisition techniques were employed on a flow cytometer and by the use of antibodies conjugated to fluorescent molecules where the antibodies recognize rhesus macaque cell surface proteins on various immune cell subsets. In animals dosed with the compound of Example 4, whole blood samples were collected for each dose at various time points both at pre- and post-administration of compound. Total PBMCs were stained in the whole blood samples using antibodies that were chosen to be reactive to rhesus CD3, CD4, CD8, NKG2A, CD16 and CD56, each conjugated to different fluorescent probes to delineate CD3+CD4+CD8− lymphocytes, CD3+CD4−CD8+ lymphocytes and CD3-CD8+ NKG2A+CD16+ CD56+ NK cells. The flow cytometry data presented herein are from animals treated with the compound of Example 4.

[3] = test system: HIV in PBMCs from HIV-infected donors on suppressive cART; assay: Activation of HIV by Example 49 ex vivo in PBMCs (Example 210); assay type: cell-based, human; conditions: N = 18 donors, day 4
Method: PBMCs from 18 HIV-infected donors (Donor IDs 152-169) on suppressive cART were isolated, as described previously in Materials and Methods (PBMC Isolation), and immediately added to tissue culture plates pre-equilibrated at 37° C. with media containing DMSO or the compound of Example 49 (GS-9620) at 0.1 uM or 1.0 uM. At day 4 after treatment, cell-free culture supernatants were collected and HIV viral RNA was quantitated using the automated COBAS® AmpliPrep/COBAS® TaqMan® HIV-1 Test, v2.0 system (Roche Diagnostics, Indianapolis, Ind.), as described previously in Materials and Methods (HIV-1 Activation Assay). Geometric mean fold HIV activations from three independent wells for each donor and each condition were expressed as a ratio of HIV-1 RNA copies/ml detected in culture supernatants from TLR7 agonist treated and DMSO treated wells. Fold HIV activation values were plotted using GraphPad Prism software (GraphPad, San Diego, Calif.) and can be seen in FIG. 7. The dashed line indicates 2-fold induction.

[4] = test system: HIV-infected CD4 T cells (HIV-1 clinical isolate HT593); assay: Killing of HIV-infected CD4 T cells by combination of Example 49 and HIV antibody PGT121 (Example 218); assay type: cell-based, human; conditions: 5 days, combined with PGT121, two donors
Method: PBMCs from […] (AllCells: Donor IDs A4593, A4596, A4606) were isolated, as described previously. PBMCs were treated with DMSO or with the compound of Example 49 (GS-9620) at 0.1 uM or 1 uM in replicate culture sets of 8 for 5 days. In parallel, total CD4 T cells were isolated from each donors' PBMCs using the EasySep Human CD4+ T cell Enrichment Kit (Stemcell Technologies). CD4 T cells were infected in bulk with the HIV-1 clinical isolate HT593 (NIH AIDS Reagent Program) using 50-100 ng p24/million CD4 T cells by spinfecting at 1200×g for 2 hours. HIV-infected CD4 T cells were incubated for 5 days at 37° C. in RPMI plus 10% FBS with 30 U/mL IL-2 (Invitrogen). After 5 days in culture, HIV-infected CD4 T cells were washed, counted, and added to PBMCs from the autologous donor at a ratio of 20 PBMCs to 1 CD4 T cell (20:1). To each co-culture replicate, HIV antibody PGT121 (Gilead Sciences, Inc.) was added at concentrations from 6.7e-5 nM to 6.7e2 nM. Co-cultures were incubated with or without HIV antibody for 1 day at 37° C.
Co-cultures were collected and stained with live/dead Fixable Aqua Dead Cell Stain (Invitrogen) and PE-Cy7-labeled antibody to CD4 (BD Biosciences). Cells were fixed and permeabilized, as described previously, and stained with PE labeled antibody to HIV Gag protein p24 (Beckman Coulter). FACS was performed on a LSR Fortessa (BD Biosciences) and data analysis was done with FlowJo software (TreeStar). Data was plotted and statistical analysis was done with GraphPad Prism software (GraphPad). Killing of HIV-infected CD4 T cells was calculated as a reduction of CD4+p24+ T cells at each PGT121 concentration relative to cultures without PGT121.

For `CCCCOc1nc(N)c2c(n1)N(Cc1ccc(CN3CCCC3)cc1)CC(=O)N2` [Example 4], the plasma viral load ([1]; animal with the lowest chronic set point, undetectable for at least 100 days following the last dose (FIG. 1)) was < 50 RNA copies/mL, the “sustained decrease in viral load set point compared to pre-dose” value ([1]; second animal, log10 RNA copies, maintained at least 100 days following the last dose (FIG. 2)) was “approximately 1 log order” and the “mean maximum percent change in CD69 expression on CD4 lymphocytes” value (“mean maximum percent change” for short) ([2]; all subsequent doses) was 1.7%. The “mean maximum percent change” value ([2]; dose 0.1 mg/kg, any time point (rise 24 to 72 hours post-dose), pre-dose range 0.5-1.7%) was 1.1%, the “mean maximum percent change” value ([2]; dose 0.2 mg/kg, pre-dose range 0.5-2%) was 1.5% and the “mean maximum percent change” value ([2]; first dose of 0.3 mg/kg, pre-dose range 0.6-2.5%) was 2.3%.

With `CCCCOc1nc(N)c2c(n1)N(Cc1cccc(CN3CCCC3)c1)CC(=O)N2` [Example 49] the “Fold geometric mean (HIV activation)” value ([3]; 100 nM) was 9.3 fold, the “Fold range (HIV activation)” value ([3]; 100 nM) was 2.7-26.6 fold and the “N (%) with ≥2-fold activation” value ([3]; 100 nM) was 10 (56) N (%). For the same compound, the “Fold geometric mean (HIV activation)” value ([3]; 1,000 nM) was 6.5 fold, the “Fold range (HIV activation)” value ([3]; 1,000 nM) was 2.0-21.5 fold and the “N (%) with ≥2-fold activation” value ([3]; 1,000 nM) was 11 (61) N (%). For the same compound, the “Fold geometric mean (HIV activation)” value ([3]; 100 and/or 1,000 nM) was 9.1 fold, the “Fold range (HIV activation)” value ([3]; 100 and/or 1,000 nM) was 2.0-26.6 fold and the “N (%) with ≥2-fold activation” value ([3]; 100 and/or 1,000 nM) was 13 (72) N (%). For the same compound, the “increase of AUC relative to DMSO controls” value ([4]; Example 49 0.1 uM) was 32% and 52%, the “increase of maximal killing relative to DMSO controls” value ([4]; Example 49 0.1 uM) was 30% and 38% and the “increase of AUC relative to DMSO controls” value ([4]; Example 49 1 uM) was 52% and 73%. For the same compound, the “increase of maximal killing relative to DMSO controls” value ([4]; Example 49 1 uM) was 50% and 48%.

— US11116774B2, “Modulators of toll-like receptors for the treatment of HIV” (Gilead Sciences, Inc., priority 2014, dated 2021)
